These results are taken from ChEMBL document CHEMBL1127104, “L-708,474: The C5-cyclohexyl analogue of L-365,260, a selective high affinity ligand for the CCKB/gastrin receptor” (Bioorg Med Chem Lett, 1993).

The test has as its target T1, Cholecystokinin receptor type A (Rattus norvegicus, UniProt P30551).
T1 sequence (P30551 whole entry): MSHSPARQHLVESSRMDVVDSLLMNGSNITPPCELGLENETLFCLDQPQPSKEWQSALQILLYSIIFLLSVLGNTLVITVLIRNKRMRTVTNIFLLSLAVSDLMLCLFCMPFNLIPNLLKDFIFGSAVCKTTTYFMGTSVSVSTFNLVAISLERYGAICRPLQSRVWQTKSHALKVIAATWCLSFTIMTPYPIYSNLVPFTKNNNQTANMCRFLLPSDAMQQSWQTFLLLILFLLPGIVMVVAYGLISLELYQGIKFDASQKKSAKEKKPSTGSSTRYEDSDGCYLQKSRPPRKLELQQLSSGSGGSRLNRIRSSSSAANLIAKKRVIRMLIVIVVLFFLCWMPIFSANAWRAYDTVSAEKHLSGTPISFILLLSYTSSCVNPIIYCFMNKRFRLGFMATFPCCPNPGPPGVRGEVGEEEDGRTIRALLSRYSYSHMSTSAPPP
The test can be described thus: In vitro test for inhibition of [125I]CCK binding to Cholecystokinin type A receptor from rat pancreatic tissues was determined.
Broadly, the IC50 is the concentration that gives 50% inhibition. The low end stands for higher potency, the high end for lower potency. In the case of `Cc1cccc(NC(=O)NC2N=C(C3CCC3)c3ccccc3N(C)C2=O)c1` (stereo not drawn), the IC50 was determined as 402 nM.
In the case of `Cc1cccc(NC(=O)NC2N=C(C3CCCC3)c3ccccc3N(C)C2=O)c1` (stereo not drawn), the IC50 was 27.1 nM.
`Cc1cccc(NC(=O)N[C@@H]2N=C(c3ccccc3)c3ccccc3N(C)C2=O)c1` [L-365260] gave an IC50 of 736 nM.
